US9814754B2, “Combinations with a backbone-cyclized peptide” (POLYPHOR AG, priority 2012, dated 2017)

Key:
Format in all cases: in vivo
[1] = test system: Pseudomonas aeruginosa clinical isolate PA18298; test: Murine pneumonia model, compound 1 in combination with amikacin (Example 4); details: lung
Protocol: The efficacy and ED50 of the compound of formula (I) (“compound 1”) in combination with amikacin was determined against Pseudomonas aeruginosa clinical isolate PA18298 in a pneumonia model in mice. Colony counts in lung were determined at 20 hours post treatment.
(§1) Fresh overnight colonies of PA18298 from a 5% Horse Blood Agar plate were suspended in 0.9% sterile saline to approximately 10^8 CFU/ml and further diluted to approximately 5×10^7 CFU/ml. Female mice (DBA/2, outbred, 18-22 g, Charles River) were anesthetized with 0.1 ml of Zoletil and inoculated via the nose with a pipette with 0.05 ml of the bacteria suspension containing approximately 10^6 CFU. 4 hours after inoculation, the mice were treated orally with 45 μl neurophen (20 mg ibuprofen/ml corresponding to approximately 30 mg/kg) as pain relief.
(§2) 175 mg of amikacin (Sigma) were dissolved in 5 ml 0.9% sterile saline to a concentration of 35 mg/ml and further diluted with saline to 3 mg/ml. The mice were treated subcutaneously with 0.2 ml in the neck region with a single dose at 3 hours post infection corresponding to 30 mg/kg on the basis of a mean animal weight of 20 g.
One vial containing 10 mg of active compound 1 was dissolved in 2 ml 0.9% sterile saline to a concentration of 5 mg/ml and further diluted with saline […], 1, 0.55, 0.275 and 0.137 mg/ml. The mice were treated subcutaneously with 0.2 ml in the neck region with a single dose at 4 hours post infection with a dose calculation based on a mean animal weight of 20 g. Colistin was used as a control in the same manner with a fixed dose of 20 mg/kg.
(§3) Colony counts were determined post inoculation at 4 hours (untreated mice) and 24 hours (treated and vehicle-only treated mice). Immediately after the mice were sacrificed, the lungs were collected and frozen at −20° C. After thawing, the organs were homogenized in 1 ml 0.9% saline. Each sample was then 10 fold diluted in saline and 20 μl spots were applied on blood agar plates. All agar plates were incubated 18-24 hours at 35° C. in ambient air.
The CFU/ml in the inoculum was determined to 7.4 log10 CFU/ml corresponding to 6.17 log10 CFU/mouse.
At 4 hours after inoculation the mean log 10 CFU/lung was 5.06 and the CFU level declined to 1.55 mean log 10 CFU/lung after 24 hours in the vehicle group.

[2] = test system: Pseudomonas aeruginosa clinical isolate PAX11045; test: Murine pneumonia model, compound 1 in combination with azithromycin (Example 2); details: 50 mg/kg alone, lung
Protocol: The efficacy and ED50 of the compound of formula (I) (“compound 1”) in combination with azithromycin was determined against Pseudomonas aeruginosa clinical isolate PAX11045 in a pneumonia model in mice. Colony counts in lung were determined at 20 hours post treatment.
as §1, with “PAX11045” for “PA18298”, “17-23” for “18-22”
as §2, with “480 mg” for “175 mg”, “of azithromycin (Zitromax™, Pfizer)” for “of amikacin (Sigma)”, “in 4.8” for “in 5”, “of 100” for “of 35”, “to 5” for “to 3”, “to 50” for “to 30”
(§4) The mice were treated subcutaneously with 0.2 ml in the neck region with a single dose at 4 hours post infection with a dose calculation based on a mean animal weight of 20 g.
as §3

[3] = test system: Pseudomonas aeruginosa clinical isolate PAX11045; test: Murine pneumonia model, compound 1 in combination with ertapenem (Example 1); details: 50 mg/kg alone, lung, p<0.001
Protocol: The efficacy and ED50 of the compound of formula (I) (“compound 1”) in combination with ertapenem was determined against Pseudomonas aeruginosa clinical isolate PAX11045 in a pneumonia model in mice. Colony counts in lung were determined at 20 hours post treatment.
as §1, with “PAX11045” for “PA18298”
1 g of ertapenem (Invanz™, MSD Denmark Aps) was dissolved in 10 ml 0.9% sterile saline to a concentration of 100 mg/ml and further diluted with saline to 5 mg/ml. The mice were treated subcutaneously with 0.2 ml in the neck region with a single dose at 3 hours post infection corresponding to 50 mg/kg on the basis of a mean animal weight of 20 g.
as §4, §3
The CFU/ml in the inoculum was determined to 7.65 log10 CFU/ml corresponding to 6.35 log10 CFU/mouse.
At 4 hours after infection the mean log10 CFU/lung was 5.14 and the CFU level remained at a similar level after 24 hours in the vehicle-only group.

[4] = test system: Pseudomonas aeruginosa clinical isolate PA9349; test: Murine pneumonia model, compound 1 in combination with ciprofloxacin (Example 3); details: colistin 20 mg/kg alone, lung
Protocol: Colony counts in lung were determined at 20 hours post treatment.
Fresh overnight colonies of PA9349 from a 5% Horse Blood Agar plate were suspended in 0.9% sterile saline to approximately 10^8 CFU/ml and further diluted to approximately 10^7 CFU/ml. Female mice (C57BL/6 […], outbred, 20-25 g, Hellenic Pasteur Institute) were anesthetized with ether and inoculated via the nose with a pipette with 0.05 ml of the bacteria suspension containing approximately 10^6 CFU. After inoculation, mice were treated with paracetamol suppositories as a pain relief.
The mice were treated subcutaneously with 0.2 ml in the neck region with a single dose at 3 hours post infection corresponding to 20 mg/kg on the basis of a mean animal weight of 20 g.
1 vial was further diluted with saline to 1, 0.8 and 0.4 mg/ml. The mice were treated subcutaneously with 0.25 ml (25 mg/kg dose) or 0.2 ml (for all other doses) in the neck region with a single dose at 4 hours post infection with a dose calculation based on a mean animal weight of 20 g.
as §3

[5] = test system: Pseudomonas aeruginosa clinical isolate PA18298; test: Murine pneumonia model, compound 1 alone (Reference 3); details: 20 mg/kg, positive control, lungs, p<0.001
Protocol: Efficacy in Murine Pneumonia Model Against Pseudomonas aeruginosa PA18298 and Estimation of ED50
The efficacy and ED50 of the compound of formula (I) (“compound 1”) was determined against Pseudomonas aeruginosa clinical isolate PA18298 in a pneumonia model in mice. Colony counts in the lungs were determined at 18-20 hours post treatment.
as §1, with “4×10^7” for “5×10^7”, “Zoletil (tiletamine+zolazepam)” for “Zoletil”, “1×10^6” for “10^6”
One vial containing 10 mg of active compound 1 was dissolved in 2 ml 0.9% sterile saline to a concentration of 5 mg/ml and was further diluted with saline to 2, 1, 0.75, 0.55, 0.275 and 0.137 mg/ml. The mice were treated subcutaneously with 0.2 ml in the neck region with a single dose at 4 hours post infection with a dose calculation based on a mean animal weight of 20 g. As positive control colistin was used in the same manner with a fixed dose of 20 mg/kg.
as §3, with “10-fold” for “10 fold”, “18-48” for “18-24”
The CFU/ml in the inoculum was determined to 7.49 log10 CFU/ml corresponding to 6.20 log10 CFU/mouse.
At 4 hours after infection the mean log10 CFU/lung was 5.05 and the CFU level declined to 2.62 at 24 hours post inoculation in the vehicle-only group.

NCC[C@H](O)C(=O)N[C@@H]1C[C@H](N)[C@@H](O[C@H]2O[C@H](CN)[C@@H](O)[C@H](O)[C@H]2O)[C@H](O)[C@H]1O[C@H]1O[C@H](CO)[C@@H](O)[C@H](N)[C@H]1O [amikacin, reference compound]
effect on bacterial loads ([1]; amikacin 30 mg/kg alone): some effects on reducing the bacterial loads

CC[C@H]1OC(=O)[C@H](C)[C@@H](O[C@H]2C[C@@](C)(OC)[C@@H](O)[C@H](C)O2)[C@H](C)[C@@H](O[C@@H]2O[C@H](C)C[C@H](N(C)C)[C@H]2O)[C@](C)(O)C[C@@H](C)CN(C)[C@H](C)[C@@H](O)[C@]1(C)O [azithromycin, reference compound]
effect on bacterial loads [2]: no effect on the bacterial loads

C[C@@H](O)[C@H]1C(=O)N2C(C(=O)O)=C(S[C@@H]3CN[C@H](C(=O)Nc4cccc(C(=O)O)c4)C3)[C@H](C)[C@H]12 [ertapenem, reference compound]
effect on bacterial loads [3]: significant effect on reducing the bacterial loads

colistin [reference compound]
effect on bacterial loads [4]: no or only slight effects on the bacterial loads
effect on bacterial loads ([1]; colistin 20 mg/kg, control): some effects on reducing the bacterial loads
effect on bacterial loads [5]: some effect on reducing the bacterial loads
